In US9844550B2, “Phtalazinone derivatives and manufacturing process thereof” (ILDONG PHARM CO., LTD., priority 2013, dated 2017) one finds IC50 data, which are given here for 32 compounds.

Structures are written as SMILES. Some results are limits rather than exact numbers.

The term IC50 denotes the concentration needed to halve the response being measured. Read a low IC50 as greater potency.

This experiment relates to MDA-MB-436 breast cancer cell line. Kind of experiment: Cell viability assay (MDA-MB-436). The settings on record: Homo sapiens, 144 h; MDA-MB-436 cells, treated 6 days. The format is cell-based. Here is the method: 2. Cell Viability Assay (MDA-MB-436)
Cell viability assay was performed by using MDA-MB-436 cell line to measure cytotoxicity of compounds in the present invention. MDA-MB-436 breast cancer cell line was seeded into 96-well plates at 37° C. under 5% CO2 atmosphere using DMEM/F12 (Gibco) containing 10% FBS (Hyclone). After 24 hr incubation, cells were treated with the invented compounds at various concentrations for 6 days. The medium was changed every 3 day. 6 days later, A fluorescence reagent was used to determine the IC50 values.
Compound `O=C(c1cc(Cc2n[nH]c(=O)c3ccccc23)ccc1F)N1CC(NC2(CO)CC2)C1` [Compound I-84, 4-(4-fluoro-3-(3-((1-(hydroxymethyl)cyclopropyl)amino)azetidine-1-carbonyl)benzyl)phthalazin-1(2H)-one] yielded an IC50 of 50 to 300 nM. The result for `CC1(NC2CN(C(=O)c3cc(Cc4n[nH]c(=O)c5ccccc45)ccc3F)C2)CC1` [Compound I-85, 4-(4-fluoro-3-(3-((1-methylcyclopropyl)amino)azetidine-1-carbonyl)benzyl)phthalazin-1(2H)-one] reads ≤ 5 nM. The result for `C[C@@H](NC1CN(C(=O)c2cc(Cc3n[nH]c(=O)c4ccccc34)ccc2F)C1)C(C)(C)C` [Compound I-86, (R)-4-(3-(3-((3,3-dimethylbutan-2-yl)amino)azetidine-1-carbonyl)-4-fluorobenzyl)phthalazin-1(2H)-one] reads 5 to 50 nM. The result for `C[C@H](NC1CN(C(=O)c2cc(Cc3n[nH]c(=O)c4ccccc34)ccc2F)C1)C(C)(C)C` [Compound I-87, (S)-4-(3-(3-((3,3-dimethylbutan-2-yl)amino)azetidine-1-carbonyl)-4-fluorobenzyl)phthalazin-1(2H)-one] reads 300 to 1000 nM; that for `CC(C)[C@@H](C)NC1CN(C(=O)c2cc(Cc3n[nH]c(=O)c4ccccc34)ccc2F)C1` [Compound I-88, (R)-4-(4-fluoro-3-(3-((3-methylbutan-2-yl)amino)azetidine-1-carbonyl)benzyl)phthalazin-1(2H)-one], ≤ 5 nM. `CC(C)[C@H](C)NC1CN(C(=O)c2cc(Cc3n[nH]c(=O)c4ccccc34)ccc2F)C1` [Compound I-89, (S)-4-(4-fluoro-3-(3-((3-methylbutan-2-yl)amino)azetidine-1-carbonyl)benzyl)phthalazin-1(2H)-one] had an IC50 of 5 to 50 nM. For `COCC1(NC2CN(C(=O)c3cc(Cc4n[nH]c(=O)c5ccccc45)ccc3F)C2)CC1` [Compound I-90, 4-(4-fluoro-3-(3-((1-(methoxymethyl)cyclopropyl)amino)azetidine-1-carbonyl)benzyl)phthalazin-1(2H)-one], the IC50 was in the range of 50 to 300 nM.

Compound `C#CCCNC1CN(C(=O)c2cc(Cc3n[nH]c(=O)c4ccccc34)ccc2F)C1` [Compound I-91, 4-(3-(3-(but-3-yn-1-ylamino)azetidine-1-carbonyl)-4-fluorobenzyl)phthalazin-1(2H)-one] came in with an IC50 of 50 to 300 nM. On to `C=C(C)CNC1CN(C(=O)c2cc(Cc3n[nH]c(=O)c4ccccc34)ccc2F)C1` [Compound I-92, 4-(4-fluoro-3-(3-((2-methylallyl)amino)azetidine-1-carbonyl)benzyl)phthalazin-1(2H)-one], for which the IC50 is 5 to 50 nM. In turn, `CC(C)(CO)CNC1CN(C(=O)c2cc(Cc3n[nH]c(=O)c4ccccc34)ccc2F)C1` [Compound I-93, 4-(4-fluoro-3-(3-((3-hydroxy-2,2-dimethylpropyl)amino)azetidine-1-carbonyl)benzyl)phthalazin-1(2H)-one] gave an IC50 of 50 to 300 nM. The result for `N#CC1(CNC2CN(C(=O)c3cc(Cc4n[nH]c(=O)c5ccccc45)ccc3F)C2)CC1` [Compound I-94, 1-(((1-(2-fluoro-5-((4-oxo-3,4-dihydrophthalazin-1-yl)methyl)benzoyl)azetidin-3-yl)amino)methyl)cyclopropanecarbonitrile] reads 300 to 1000 nM; that for `O=C(c1cc(Cc2n[nH]c(=O)c3ccccc23)ccc1F)N1CC(NCC(F)(F)F)C1` [Compound I-95, 4-(4-fluoro-3-(3-((2,2,2-trifluoroethyl)amino)azetidine-1-carbonyl)benzyl)phthalazin-1(2H)-one], 50 to 300 nM; that for `O=C(c1cc(Cc2n[nH]c(=O)c3ccccc23)ccc1F)N1CC(N[C@@H]2CCNC2)C1` [Compound I-96, (R)-4-(4-fluoro-3-(3-(pyrrolidin-3-ylamino)azetidine-1-carbonyl)benzyl)phthalazin-1(2H)-one], 300 to 1000 nM. In the case of `N#CC1(NC2CN(C(=O)c3cc(Cc4n[nH]c(=O)c5ccccc45)ccc3F)C2)CCCC1` [Compound I-98, 1-((1-(2-fluoro-5-((4-oxo-3,4-dihydrophthalazin-1-yl)methyl)benzoyl)azetidin-3-yl)amino)cyclopentanecarbonitrile] it was 300 to 1000 nM; in that of `CCC(C#N)NC1CN(C(=O)c2cc(Cc3n[nH]c(=O)c4ccccc34)ccc2F)C1` (centres unmarked) [Compound I-101, 2-((1-(2-fluoro-5-((4-oxo-3,4-dihydrophthalazin-1-yl)methyl)benzoyl)azetidin-3-yl)amino)butanenitrile], 300 to 1000 nM; in that of `CC(C)C(C#N)NC1CN(C(=O)c2cc(Cc3n[nH]c(=O)c4ccccc34)ccc2F)C1` (centres unmarked) [Compound I-102, 2-((1-(2-fluoro-5-((4-oxo-3,4-dihydrophthalazin-1-yl)methyl)benzoyl)azetidin-3-yl)amino)-3-methylbutanenitrile], 300 to 1000 nM. In turn, `N#CC(NC1CN(C(=O)c2cc(Cc3n[nH]c(=O)c4ccccc34)ccc2F)C1)C1CC1` (centres unmarked) [Compound I-103, 2-cyclopropyl-2-((1-(2-fluoro-5-((4-oxo-3,4-dihydrophthalazin-1-yl)methyl)benzoyl)azetidin-3-yl)amino)acetonitrile] gave an IC50 of 300 to 1000 nM.

Regarding `O=C(c1cc(Cc2n[nH]c(=O)c3ccccc23)ccc1F)N1CC(NC2(C(F)(F)F)CCC2)C1` [Compound I-104, 4-(4-fluoro-3-(3-((1-(trifluoromethyl)cyclobutyl)amino)azetidine-1-carbonyl)benzyl)phthalazin-1(2H)-one], the IC50 was 300 to 1000 nM. On to `O=C(c1cc(Cc2n[nH]c(=O)c3ccccc23)ccc1F)N1CC(Nc2ncccn2)C1` [Compound I-109, 4-(4-fluoro-3-(3-(pyrimidin-2-ylamino)azetidine-1-carbonyl)benzyl)phthalazin-1(2H)-one], for which the IC50 lay within 300 to 1000 nM. `O=C(c1cc(Cc2n[nH]c(=O)c3ccccc23)ccc1F)N1CC[C@H](Nc2ncccn2)C1` [Compound I-110, (S)-4-(4-fluoro-3-(3-(pyrimidin-2-ylamino)pyrrolidine-1-carbonyl)benzyl)phthalazin-1(2H)-one]: the IC50 is 300 to 1000 nM. In the case of `CN(c1ccc(Cl)nn1)[C@H]1CCN(C(=O)c2cc(Cc3n[nH]c(=O)c4ccccc34)ccc2F)C1` [Compound I-111, (S)-4-(3-(3-((6-chloropyridazin-3-yl)(methyl)amino)pyrrolidine-1-carbonyl)-4-fluorobenzyl)phthalazin-1(2H)-one] it was 300 to 1000 nM; in that of `O=C(c1cc(Cc2n[nH]c(=O)c3ccccc23)ccc1F)N1CC[C@H](Nc2ccc(Cl)nn2)C1` [Compound I-112, (S)-4-(3-(3-((6-chloropyridazin-3-yl)amino)pyrrolidine-1-carbonyl)-4-fluorobenzyl)phthalazin-1(2H)-one], 300 to 1000 nM; in that of `CN(c1cccnn1)[C@H]1CCN(C(=O)c2cc(Cc3n[nH]c(=O)c4ccccc34)ccc2F)C1` [Compound I-113, (S)-4-(4-fluoro-3-(3-(methyl(pyridazin-3-yl)amino)pyrrolidine-1-carbonyl)benzyl)phthalazin-1(2H)-one], 300 to 1000 nM. The result for `CN(c1ccc(Cl)nn1)C1CN(C(=O)c2cc(Cc3n[nH]c(=O)c4ccccc34)ccc2F)C1` [Compound I-115, 4-(3-(3-((6-chloropyridazin-3-yl)(methyl)amino)azetidine-1-carbonyl)-4-fluorobenzyl)phthalazin-1(2H)-one] reads 300 to 1000 nM; that for `O=C(c1cc(Cc2n[nH]c(=O)c3ccccc23)ccc1F)N1CC(N(c2ncccn2)C2CCC2)C1` [Compound I-116, 4-(3-(3-(cyclobutyl(pyrimidin-2-yl)amino)azetidine-1-carbonyl)-4-fluorobenzyl)phthalazin-1(2H)-one], 300 to 1000 nM; that for `O=C(c1cc(Cc2n[nH]c(=O)c3ccccc23)ccc1F)N1CC[C@@H](Nc2ccc(Cl)nn2)C1` [Compound I-118, (R)-4-(3-(3-((6-chloropyridazin-3-yl)amino)pyrrolidine-1-carbonyl)-4-fluorobenzyl)phthalazin-1(2H)-one], 300 to 1000 nM. The result for `CCN(c1ncccn1)[C@@H]1CCN(C(=O)c2cc(Cc3n[nH]c(=O)c4ccccc34)ccc2F)C1` [Compound I-121, (R)-4-(3-(3-(ethyl(pyrimidin-2-yl)amino)pyrrolidine-1-carbonyl)-4-fluorobenzyl)phthalazin-1(2H)-one] reads 300 to 1000 nM.

For the compound `O=C(c1cc(Cc2n[nH]c(=O)c3ccccc23)ccc1F)N1CC[C@@H](Nc2nccs2)C1` [Compound I-124, (R)-4-(4-fluoro-3-(3-(thiazol-2-ylamino)pyrrolidine-1-carbonyl)benzyl)phthalazin-1(2H)-one], the IC50 lay within 50 to 300 nM.

Regarding `C#Cc1cnc(N[C@@H]2CCN(C(=O)c3cc(Cc4n[nH]c(=O)c5ccccc45)ccc3F)C2)nc1` [Compound I-125, (R)-4-(3-(3-((5-ethynylpyrimidin-2-yl)amino)pyrrolidine-1-carbonyl)-4-fluorobenzyl)phthalazin-1(2H)-one], the IC50 is ≤ 5 nM.

The compound `N#Cc1cnc(N[C@@H]2CCN(C(=O)c3cc(Cc4n[nH]c(=O)c5ccccc45)ccc3F)C2)nc1` [Compound I-126, (R)-2-((1-(2-fluoro-5-((4-oxo-3,4-dihydrophthalazin-1-yl)methyl)benzoyl)pyrrolidin-3-yl)amino)pyrimidine-5-carbonitrile] came in with an IC50 of 5 to 50 nM. Turning to `O=C(c1cc(Cc2n[nH]c(=O)c3ccccc23)ccc1F)N1CC[C@@H](Nc2ccccn2)C1` [Compound I-128, (R)-4-(4-fluoro-3-(3-(pyridin-2-ylamino)pyrrolidine-1-carbonyl)benzyl)phthalazin-1(2H)-one], the IC50 is 5 to 50 nM.

`CN(C)C(=O)c1cccnc1N[C@@H]1CCN(C(=O)c2cc(Cc3n[nH]c(=O)c4ccccc34)ccc2F)C1` [Compound I-129, (R)-2-((1-(2-fluoro-5-((4-oxo-3,4-dihydrophthalazin-1-yl)methyl)benzoyl)pyrrolidin-3-yl)amino)-N,N-dimethylnicotinamide] yielded an IC50 of 300 to 1000 nM.
